Data on 13 compounds can be found in patent publication US20250134813A1, “COMPOUNDS, LIPSOMES, AND DRUG CARRIERS FOR DRUG DELIVERY” (priority 2023, published 2025).

One experiment has as its system CHL cells. As to the kind of experiment: Evaluation of cell toxicity (CCK8 cell viability). Format: cell-based. On the procedure: CHL cells are seeded in a 96-well culture plate at a density of 4000 cells per well and incubated overnight at 37° C. in a 5% CO2 incubator. The culture medium is then replaced with 100 μL of medium containing different concentrations of ALC-0315, SM-102, and compounds prepared according to embodiments 1 and 2 of the present invention (specific concentrations are shown in FIG. 1), and cells are further incubated for 48 hours. Subsequently, 10 μL of CCK8 solution is added to each well and incubated for an additional 4 hours in the cell culture incubator. After the incubation, the absorbance at 450 nm is measured using a microplate reader, and cell viability is calculated. The IC50 values are calculated using GraphPad Prism software (version 8.01).

The subject of experiment [1] is RBD of the wild-type Delta strain S protein. As to the kind of experiment: Immunostimulatory efficacy of LNPs@Delta S-2P mRNA (serum antibody titers by ELISA). Format: in vivo, Balb/c mice. To be noted: for GMT: i.m. A general note: An ELISA detects its analyte on a solid surface through an enzyme-linked reagent.
The subject of experiment [2] is Fluc mRNA expression. As to the kind of experiment: In vivo expression of LNPs@Fluc mRNA via intramuscular injection (bioluminescence, IVIS). To be noted: 20 μg FLuc mRNA per mouse, 8 hours after administration, vs MC3, ALC-0315, SM-102. The arrangement: species or system BALB/c mouse. How it is done: (§1) Furthermore, the ability of LNPs@mRNA prepared using compounds of the present invention to deliver mRNA in vivo was investigated. The inventors chose firefly luciferase as the reporter gene to label mRNA, referred to as Fluc mRNA. Following the method outlined in Example 3, LNPs@Fluc mRNA were prepared using different ionizable lipids (Compound 8, MC3, ALC-0315, or SM-102), referred to as LNP@Fluc mRNA formulation, MC3@Fluc mRNA, ALC-0315@Fluc mRNA, and SM-102@Fluc mRNA, respectively. These formulations were administered via intravenous injection (Step 2.1 of this example) and intramuscular injection (Step 2.2 of this example) to investigate the ability of LNPs@mRNA formulations prepared using compounds of the present invention to express mRNA in vivo and the distribution of expression.
The formulations LNPs@Fluc mRNA (Compound 8), the positive control formulation MC3@Fluc mRNA, ALC-0315@Fluc mRNA, and SM-102@Fluc mRNA, abbreviated as follows, were prepared as described above.
Each formulation's mRNA concentration was adjusted to 0.1 mg/mL using PBS solution, and the osmolarity of each formulation was adjusted to isotonic. […] The bioluminescence intensity of the entire body of the live mice was measured using an IVIS instrument with an exposure time of 60 s. Total flux of each organ was calculated after imaging. […]

In experiment [3] the test system is Fluc mRNA expression. As to the kind of experiment: In vivo expression of LNPs@Fluc mRNA via intravenous injection (organ bioluminescence, IVIS). To be noted: intravenous (tail vein), 10 μg FLuc mRNA per mouse, 6 hours after administration; vs MC3, ALC-0315, SM-102. Also on record: species or system NIH mouse. On the procedure: as §1, with “expression. […]” for “expression.”
Each formulation's mRNA concentration was adjusted to 0.05 mg/mL using PBS solution, and the osmolarity of each formulation was adjusted to isotonic. […] The heart, liver, spleen, lungs, and kidneys were rapidly dissected, and the bioluminescence intensity of each excised organ was measured using an IVIS instrument with an exposure time of 60 s. Total flux of each organ was calculated after imaging. […]

Setting [4] is: CHL cells, 48 hours incubation, CCK8, cell viability.
Where [5] appears, read: Table 3: 1 μg each time, two administrations 14 days apart, serum 28 days after the initial immunization.
Setting [6] is: Day 14, dose 0.1 μg, LNPs@Delta S-2P mRNA prepared with the lipid.
The mark [7] stands for this setting: Day 14, dose 1 μg, LNPs@Delta S-2P mRNA prepared with the lipid.
Where [8] appears, read: Day 14, dose 5 μg, LNPs@Delta S-2P mRNA prepared with the lipid.
Where [9] appears, read: Day 28, dose 0.1 μg, two administrations 14 days apart.
Where [10] appears, read: Day 28, dose 1 μg, two administrations 14 days apart.
Where [11] appears, read: Day 28, dose 5 μg, two administrations 14 days apart.

The structures appear in SMILES notation. In brackets after ≈: the same amount, converted by molar mass.

By IC50 is commonly meant the midpoint of a concentration-inhibition curve. In the experiment with CHL cells (setting [4]), `CCCCCCCCC(CCCCCC)C(=O)OCCCCCCN(CCCCO)CCCCCCOC(=O)C(CCCCCC)CCCCCCCC` (stereo not drawn) [ALC-0315, reference compound] came in with a half-maximal inhibitory concentration (IC50) of 29.9 µg/mL (≈ 39 µM).

In the experiment on CHL cells (CHL, 48 h), `CCCCCCCCC(CCCCCC)CNC(=O)NCCCCCCN(CCCO)CCCCCCNC(=O)NCC(CCCCCC)CCCCCCCC` (stereo not drawn) [Compound 7] returned an IC50 of 126 µg/mL (≈ 155 µM). The GMT in experiment [1] (setting [5]) is 341,832.9.

The compound `CCCCCCCCC(CCCCCC)CNC(=O)NCCCCCCN(CCCCO)CCCCCCNC(=O)NCC(CCCCCC)CCCCCCCC` (stereo not drawn) [Compound 8] had an IC50 in the experiment on CHL cells (CHL, 48 h) of 166 µg/mL (≈ 202 µM). The “Compound 8 GMT/SM-102 GMT” value worked out at 6.3 in experiment [1] (Day 14, dose 0.1 μg); 14.3 in experiment [1] (Day 14, dose 1 μg); 4.5 in experiment [1] (Day 14, dose 5 μg); 3.6 in experiment [1] (Day 28, dose 0.1 μg); 4.0 in experiment [1] (Day 28, dose 1 μg); 2.5 in experiment [1] (Day 28, dose 5 μg). The GMT in experiment [1] (setting [6]) amounted to 4525.5; in experiment [1] (setting [7]), 32254.0; in experiment [1] (setting [8]) it was 81274.9; in experiment [1] (setting [9]) it was 64508.0; in experiment [1] (setting [10]), 325099.7; in experiment [1] (setting [11]), 819200.0. Also, in experiment [1] (setting [5]), the GMT was 325,099.7. Further, the “mRNA expression capability based on the total bioluminescence emitted” value in the experiment on Fluc mRNA expression [2] and in the experiment on Fluc mRNA expression [3] was “stronger mRNA expression capability compared to the three positive control materials” throughout.

Regarding `CCCCCCCCC(CCCCCC)CNC(=O)NCCCCCCN(CCCCCO)CCCCCCNC(=O)NCC(CCCCCC)CCCCCCCC` (stereo not drawn) [Compound 9], in the experiment with CHL cells (CHL, 48 h), inhibition was half-maximal at 152 µg/mL (≈ 182 µM) (IC50). In experiment [1] (setting [5]), the GMT is on record as 452,334.1.

As to `CCCCCCCCC(CCCCCC)CNC(=O)NCCCCCCN(CCCCCCCO)CCCCCCNC(=O)NCC(CCCCCC)CCCCCCCC` (stereo not drawn) [Compound 10], the IC50 in the experiment with CHL cells (CHL, 48 h) came out at 153 µg/mL (≈ 177 µM). Moreover, in experiment [1] (setting [5]), the GMT is reported as 299,812.1.

In the experiment with CHL cells (CHL, 48 h), `CCCCCCCCC(CCCCCC)CNC(=O)NCCCCCN(CCCCO)CCCCCNC(=O)NCC(CCCCCC)CCCCCCCC` (stereo not drawn) [Compound 11] yielded an IC50 of 137 µg/mL (≈ 173 µM). Also, in experiment [1] (setting [5]), the GMT was 473,681.3.

With `CCCCCCCCC(CCCCCC)CNC(=O)NCCCCCCCCCN(CCCCO)CCCCCCCCCNC(=O)NCC(CCCCCC)CCCCCCCC` (stereo not drawn) [Compound 12], the IC50 with CHL cells (CHL, 48 h) amounted to 195 µg/mL (≈ 215 µM). In addition, in experiment [1] (setting [5]), the GMT was 449,359.1.

`CCCCCCCCC(CCCCCC)CNC(=O)NCCCCCCCCCCCCN(CCCCO)CCCCCCCCCCCCNC(=O)NCC(CCCCCC)CCCCCCCC` (stereo not drawn) [Compound 13] yielded an IC50 in the experiment on CHL cells (CHL, 48 h) of 136 µg/mL (≈ 137 µM). Besides, the GMT in experiment [1] (setting [5]) is listed as 210,944.0.

Turning to `CCCCCCCCC(CCCCCC)CNC(=O)NCCCCCCCCCCCCN(CCCCO)CCCCCCNC(=O)NCC(CCCCCC)CCCCCCCC` (stereo not drawn) [Compound 15], it took 147 µg/mL (≈ 162 µM) to reach half-maximal inhibition with CHL cells (CHL, 48 h) (IC50). Further, the GMT in experiment [1] (setting [5]) was 400,363.5.

`CCCCCCC(CCCCCC)CNC(=O)NCCCCCCN(CCCCO)CCCCCCNC(=O)NCC(CCCCCC)CCCCCC` [Compound 16]: the IC50 in the experiment with CHL cells (CHL, 48 h) worked out at 134 µg/mL (≈ 174 µM). Also, in experiment [1] (setting [5]), the GMT is 244,238.6.

`CCCCCCCCC(CCCCCCCC)CNC(=O)NCCCCCCN(CCCCO)CCCCCCNC(=O)NCC(CCCCCCCC)CCCCCCCC` [Compound 17] had a half-inhibitory concentration (IC50) in the experiment on CHL cells (CHL, 48 h) of 174 µg/mL (≈ 198 µM). Besides, the GMT in experiment [1] (setting [5]) was 299,707.3.

On to `CCCCCCCCCCCCNC(=O)NCCCCCCN(CCCCO)CCCCCCNC(=O)NCC(CCCCCC)CCCCCCCC` (stereo not drawn) [Compound 21], for which the IC50 in the experiment on CHL cells (CHL, 48 h) is 119 µg/mL (≈ 156 µM). Moreover, the GMT in experiment [1] (setting [5]) is on record as 208,203.5.

For `CCCCCCCCCCCOC(=O)CCCCCN(CCO)CCCCCCCC(=O)OC(CCCCCCCC)CCCCCCCC` [SM-102, reference compound], the IC50 in the experiment on CHL cells (setting [4]) was determined as 55.9 µg/mL (≈ 78.7 µM). In addition, the GMT is reported as 712.7 in experiment [1] (setting [6]); 2262.7 in experiment [1] (setting [7]); 18101.9 in experiment [1] (setting [8]); 18101.9 in experiment [1] (setting [9]); 81274.9 in experiment [1] (setting [10]); 325099.7 in experiment [1] (setting [11]). Also, in experiment [1] (setting [5]), the GMT was 81,274.9.
